# Source: patent US6407081B1, “Method for inhibiting cytokine production by cells” (Previsan AG, priority 1997, dated 2002)
# Assays:
# IL-5 = IL-5 production by PHA/PMA-stimulated mononuclear cells, ELISA (Example 7); assay type: cell-based; conditions: human mononuclear cells, PHA + PMA, 48 h
# Protocol: (§1) 200 ml of blood are taken and heparinised from healthy male and female volunteers. Mononuclear cells are isolated by Ficoll-Hypaque centrifugation and resuspended in a medium consisting of RPMI 1640 complemented by 5% autologous serum, […] of glutamine, […] of penicillin, 10 μg/ml of streptomycin, 10 μg/ml of phytohaemagglutinin (PHA), 10 μg/ml of phorbol myristate acetate (PMA) and test compounds as stated per individual experiment at a cellular density of 2,000,000 per ml. The cells are distributed in 96 well microtitre plates in 250 μl portions per well and incubated for 48 hours at 37° C. The supernatants are then harvested and the IL-2 and IL-5 concentrations quantified by a standard ELISA assay using a biotin/streptavidin system. By way of variant, PHA was replaced with 0.1 μg/ml of monoclonal antibodies directed against human CD3 in order to achieve more specific activation of the T cells.
# IL-2 = IL-2 production by PHA/PMA-stimulated mononuclear cells, ELISA (Example 7); assay type: cell-based; conditions: human mononuclear cells, PHA + PMA, 48 h
# Protocol: as §1
# [1] = medium not stated; cited from earlier work
# tumour necrosis factor = conditions: dose of 1 mmol; endotoxin-induced activation of alveolar macrophages; cited from earlier work
SMILES,inhibition at 10 µM (IL-5; 10 μM) [%],inhibition at 32 µM (IL-5; 32 μM) [%],inhibition at 10 µM (IL-2; 10 μM) [%],inhibition at 32 µM (IL-2; 32 μM) [%],half-life [1],production of tumour necrosis factor (tumour necrosis factor),IL-5 inhibition (%) (IL-5; 10 μM),IL-5 inhibition (%) (IL-5; 32 μM),IL-2 inhibition (%) (IL-2; 10 μM),IL-2 inhibition (%) (IL-2; 32 μM)
"O=C(N=NC(=O)N1CCCCC1)N1CCCCC1 [B, 1,1′-(azodicarbonyl)dipiperidine]",17,39,0.2,11,,,,,,
"CN(C)C(=O)N=NC(=O)N(C)C [A, 1,1′-azobisdimethylformamide]",,,,,only a few minutes,insignificant increase,12,29,3,28
"O=C(N=NC(=O)N1CCOCC1)N1CCOCC1 [C, 1,1′-(azodicarbonyl)dimorpholine]",,,,,,,37,51,6,9
